Patent publication US10150765B2, “P2X7 modulators” (Janssen Pharmaceutica NV, priority 2013, dated 2018)

Target: P2X7 (Homo sapiens (Human), UniProt Q99572)
Assay: P2X7 antagonism in human PBMCs (LPS + Bz-ATP induced IL-1β release, ELISA)
Type: cell-based
Settings: 10 μM compound, LPS 30 ng/ml + 0.5 mM Bz-ATP
Procedure: Human blood was collected using a blood donor program. PBMCs were isolated from blood using a Ficoll density gradient technique. Briefly, blood was laid on Ficoll solution and centrifuged at RT for 20 minutes at 2000 rpm. The buffy layer (between red blood cells and plasma) was carefully collected by aspiration, washed with PBS and centrifuged again at 1500 rpm for 15 minutes. The resulting cell pellet was washed and plated on 96 well-plates for experiments. […] Lipopolysaccharide (LPS) (30 ng/ml) was added to each well and incubated for 1 hour. Test compounds were then added and incubated for 30 minutes. The P2X7 agonist, 2′(3′)-O-(4-benzoylbenzoyl) adenosine 5′ triphosphate (Bz-ATP) was then added at a final concentration of 0.5 mM (PBMC) or 1 mM (blood). Cells were incubated for an additional 1.5 hours. At that point, supernatant was collected and stored for IL-1β assay using manufacturer's protocol for enzyme-linked immunosorbent assay (ELISA). Data was expressed as percent control, where control is defined as the difference in IL-1β release in LPS+Bz-ATP samples and LPS only samples. Data was plotted as response (% control) versus concentration to generate IC50 values.

Sequence of P2X7 (Q99572 whole entry): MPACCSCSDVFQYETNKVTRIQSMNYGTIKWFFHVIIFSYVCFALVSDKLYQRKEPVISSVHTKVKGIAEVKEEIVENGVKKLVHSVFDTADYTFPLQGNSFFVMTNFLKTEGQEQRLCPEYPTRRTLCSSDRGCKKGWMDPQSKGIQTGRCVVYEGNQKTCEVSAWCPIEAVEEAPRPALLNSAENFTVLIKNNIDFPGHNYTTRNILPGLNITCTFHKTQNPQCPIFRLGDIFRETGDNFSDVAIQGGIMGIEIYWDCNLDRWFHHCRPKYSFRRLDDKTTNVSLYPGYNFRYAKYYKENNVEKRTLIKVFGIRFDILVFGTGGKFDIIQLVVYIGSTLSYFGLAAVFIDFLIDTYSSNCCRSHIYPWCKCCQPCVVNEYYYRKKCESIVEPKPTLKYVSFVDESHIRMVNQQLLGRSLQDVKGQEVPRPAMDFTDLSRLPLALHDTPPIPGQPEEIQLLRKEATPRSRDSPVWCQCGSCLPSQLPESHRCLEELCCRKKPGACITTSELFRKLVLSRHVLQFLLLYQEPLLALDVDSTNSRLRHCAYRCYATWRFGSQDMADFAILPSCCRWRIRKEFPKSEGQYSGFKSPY

Row | SMILES | PBMC 10 μM (% control)
1 | C[C@@H]1c2ncn(-c3ccccn3)c2CCN1C(=O)c1cccc(C(F)(F)F)c1F (single isomer, unassigned) [Example 42, (4R*)-5-{[2-Fluoro-3-(trifluoromethyl)phenyl]carbonyl}-4-methyl-1-pyridin-2-yl-4,5,6,7-tetrahydro-1H-imidazo[4,5-c]pyridine] | 5.8
2 | Cc1nc(-n2nnc3c2CCN(C(=O)c2cccc(C(F)(F)F)c2Cl)C3C)ncc1F (single isomer, unassigned) [Example 306, (S*)-(2-chloro-3-(trifluoromethyl)phenyl)(1-(5-fluoro-4-methylpyrimidin-2-yl)-4-methyl-6,7-dihydro-1H-[1,2,3]triazolo[4,5-c]pyridin-5(4H)-yl)methanone] | 2.5
3 | Cc1cc(C)nc(-n2nnc3c2CCN(C(=O)c2cccc(C(F)(F)F)c2Cl)C3C)n1 (stereo not drawn) [Example 253, (2-Chloro-3-(trifluoromethyl)phenyl)(1-(4,6-dimethylpyrimidin-2-yl)-4-methyl-6,7-dihydro-1H-[1,2,3]triazolo[4,5-c]pyridin-5(4H)-yl)methanone] | −2.6
4 | CC1c2nnn(-c3ncccn3)c2CCN1C(=O)c1ccc(Cl)cc1Cl (stereo not drawn) [Example 283, (2,4-dichlorophenyl)(4-methyl-1-(pyrimidin-2-yl)-6,7-dihydro-1H-[1,2,3]triazolo[4,5-c]pyridin-5(4H)-yl)methanone] | −6.3
5 | C[C@@H]1c2nnn(-c3ccc(F)cc3)c2C[C@H](C)N1C(=O)c1cccc(C(F)(F)F)c1Cl [Example 287, (2-chloro-3-(trifluoromethyl)phenyl)((4R,6 S)-1-(4-fluorophenyl)-4,6-dimethyl-6,7-dihydro-1H-[1,2,3]triazolo[4,5-c]pyridin-5(4H)-yl)methanone] | −4.1
6 | CC1c2nn(COCC[Si](C)(C)C)c(-c3ncc(F)cn3)c2CCN1C(=O)c1cccc(C(F)(F)F)c1Cl (stereo not drawn) [Example 303, (2-chloro-3-(trifluoromethyl)phenyl)(3-(5-fluoropyrimidin-2-yl)-7-methyl-2-((2-(trimethylsilyl)ethoxy)methyl)-4,5-dihydro-2H-pyrazolo[3,4-c]pyridin-6(7H)-yl)methanone] | −1.6
